Data: US20220193010A1, “METHODS OF USING DIPIVEFRIN” (INSIGNIS THERAPEUTICS, INC., priority 2017, published 2022)
Structures can show the parent of a compound that is named as a salt.

How the values were obtained:
[1] = test system: influenza A/California/04/2009 (H1N1pdm) virus; assay: Influenza A (H1N1pdm) virus infection in mice, single oral dose; format: in vivo, C57BL/6J mice; settings: for body weight loss during infection vs placebo: single p.o. dose 8.48 mg/kg 24 hours after infection, 6-day observation, p<0.05 days 5 and 6; for body weight loss during infection vs placebo / influenza virus titers in lung tissues vs placebo: 8.48 mg/kg; for influenza virus titers in lung tissues vs placebo: day 3 or 6 p.i.
[2] = for clinical observations after IM injection: dose equivalent to 0.3 mg epinephrine, 3 mice per group
[3] = test system: B16-F10 syngeneic melanoma tumors; assay: Subcutaneous B16-F10 syngeneic melanoma tumor model, oral dipivefrin as single agent; format: in vivo, C57BL/6J mice; settings: for MST (median survival time): vehicle 17.0
Excerpt: The treatments were started 7 days before tumor inoculation per study design (day −7).
The endpoints of the study included the following: tumor growth inhibition (TGJ); reduction in median tumor volume on a given day; survival of all animals will be followed and Median Survival Time (MST) and increase in life-span (ILS) will be calculated for each group.
The percent tumor growth inhibition (TGJ %) is an indication of antitumor effectiveness, and is expressed as: TGJ (%)=100× (1-TIC), in which T and C are the mean tumor volume of the treated and control groups, respectively, on a given day.
The endpoint for each mouse is either a tumor volume >3000 mm^3 or the animal is in extreme discomfort (such as pain, seizure, difficulty breathing, etc.). The increase in life-span (ILS) is calculated as follows: ILS (%)=100× [(Median Survival Time of drug treated group/Median Survival Time of vehicle group)−1] (%)
Female C57BL/6J mice (Shanghai Lingchang Bio-Technology Co. Ltd (LC, Shanghai, China; Animal Certificate No.: 2013001825675) were used in the study. At inoculation, mice were 7-8 weeks old with a body weight of 16.2-18.6 g. The mice were kept in an Individually Ventilated Cage (IVC) system at constant temperature (22˜24° C.) and humidity (60-70%) with 5 animals in each cage. Animals had free access during the entire study period to a standard mouse diet (a Co^60 irradiation-sterilized dry granule food) and water.
The test articles used in the study were dipivefrin hydrochloride (1.9 mg/ml freebase, pre-formulated dosing solution) or the vehicle (purified water containing 0.005% wt of benzalkonium chloride as preservative). Each was stored at 4° C. The B16-F10 tumor cells were maintained in vitro as a monolayer culture in DMEM medium supplemented with 10% fetal bovine serum at 37° C. in an atmosphere of 5% CO2 in air. The tumor cells were routinely subcultured twice per week. The cells growing in an exponential growth phase were harvested and counted for tumor inoculation.
Each mouse was inoculated subcutaneously at the right flank region with 2×10^5 B16F10 tumor cells in 0.1 ml of PBS for tumor development. The treatments were started 7 days prior to the inoculation. The test article was administered to the tumor-bearing mice according to the predetermined regimen as shown in the Study Design Table 3. The date of tumor cell inoculation was denoted as day 0.
First grouping: On day 7, all 30 animals were weighed and the body weight was used as numeric parameter to randomize selected animals into two groups in an effort to minimize systematic error.
Second grouping: On day 8, all 20 animals in group-1 were randomized into two groups (1a and 1b) based on tumor volume. Dose administrations were performed as shown Table 5.
After tumor cell inoculation, animals were checked daily for morbidity and mortality. At the time of routine monitoring, the animals were checked for any effects of tumor growth and treatments on normal behavior such as mobility, food and water consumption, body weight gain/loss (body weights were measured twice or thrice per week), eye/hair matting and any other abnormal effect. Death and observed clinical signs were recorded on the basis of the numbers of animals within each subset.
Tumor volumes were measured twice or thrice per week in two dimensions using a caliper, with the volume in mm^3 estimated using the formula: V=0.5 a×b^2 where a and b are the long and short perpendicular diameters of the tumor, respectively. The procedures of dosing as well as tumor and body weight measurement were conducted in a Laminar Flow Cabinet.
On day 17, mice which tumor volumes exceeded 3000 mm^3 were euthanized and the whole study was terminated on day 19. Additionally, mouse #15 in group 1-b was dead on day 13 due to an operation error, while mouse #7 in group 1-a was found dead on day 18 due to tumor ulceration. […]

[4] = human, in vivo, im; cited from earlier work
[5] = beagle dogs N=3, IM 0.3 mg, mean ± SEM
Protocol: Four days prior to study initiation, 1 mL of whole blood was collected from four (n=4) non-naive male Beagle dogs, aged 1.5-6.5 years and ranging from 9.8 to 10.8 kilograms in weight, into 4 chilled tubes containing K2EDTA. The blood was processed to plasma and plasma cholinesterase activity was assayed according to the Ellman method using acetylthiocholine iodide as the substrate (Ellman, G. L. et al Biochemical Pharmacology, 1961, volume 7, page 88-95). Based on the plasma cholinesterase activity assay results, the first three dogs with highest plasma cholinesterase activity were selected for the PK study.
The dogs were housed one per cage and identified by ear tags and cage labels. The animals were healthy at the start of the study. Primary enclosures were as specified in the USDA Animal Welfare Act (9 CFR, Parts 1, 2, and 3) and as described in the Guide for Care and Use of Laboratory Animals (ILAR publication, 2011, National Academy Press). Animals were fasted for a minimum of 12 hours prior to dosing and returned 4 hours post dose; Water was supplied ad libitum to the animals.
Dosing occurred at 0 hours on the appropriate day in accordance with the Study Design table (Table 11). […] The intramuscular dose was administered via 25 gauge needle and syringe into the lateral aspect of the left or right thigh. […]

[6] = in vivo; format: in vivo, New Zealand White Rabbits
[7] = test system: methicillin-resistant Staphylococcus aureus (MRSA) NRS71-Sanger 252; assay: Peritonitis-sepsis model of MRSA infection; format: in vivo, C57BL/6J mice
Protocol: Two (2) groups of C57BL/6J 6 to 8 week old female mice (ca 20 g body weight) with 10 mice/group were injected IP with 2×10^8 CFU/mL of methicillin-resistant Staphylococcus aureus (MRSA) NRS71-Sanger 252 in a volume of 200 μL. The treatment group was dosed with dipivefrin 15.3 mg/kg (freebase) by oral gavage starting at t=−5 days relative to bacterial inoculation. Dosing occurred once daily up to 7 days post bacterial inoculation. Body weights were measured once per day on days 0 to 7 and the experimental endpoint was survival at 7 days. Animals falling below 20% of original weight post-infection was euthanized. Four hours (4 hours) post infection, blood was drawn from 4 animals in each group and bacterial load was determined through a standard plating assay. Each blood sample was diluted by serial log dilutions and 10 dilutions (100 to 10-s) was plated in duplicate on TSA with 5% sheep's blood. The plates were incubated for 24 hours at 37° C. at which time formed colonies was enumerated and CFU/mL was determined. One mouse in the vehicle group was found dead the next day following infection and no subsequent death occurred up to 7 days post infection. No mouse died in the treatment group up to 7 days post infection.

[8] = Pharmacokinetic profile after single oral administration in mice (plasma epinephrine by LC/MS/MS); format: in vivo, C57BL6 mice; settings: oral (also IM and IP) administration
Protocol: Male C57BL6 mice, approximately 14 weeks of age and weighing between 28 and 31 g, were placed in an anesthesia chamber and transiently anesthetized with isoflurane (Henry Schein). After approximately 5 minutes and in the absence of reflex (toe pinch), mice were bled via retro-orbital sinus at t=0 (pre-dose). […] Following oral administration, mice were then retro-orbital bled under anesthesia at the following time points post-dose: 15, 30, 1 h, 2 h, 4 h, and 6 h. About 45 μl of the diluted plasma was recovered and plated. The plasma samples were analyzed for epinephrine using a validated LC/MS/MS method (Keystone Bioanalytics, North Wales Pa.).

## CNCC(O)c1ccc(OC(=O)C(C)(C)C)c(OC(=O)C(C)(C)C)c1 (stereo not drawn) [Dipivefrin HCl, Dipivefrin hydrochloride]
[1]; hydrochloride
  body weight loss during infection vs placebo: less weight loss compared to placebos
[1]; single p.o. dose 8.48 mg/kg, hydrochloride
  influenza virus titers in lung tissues vs placebo: slightly lower in treated mice compared to placebos, the difference was not statistically significant
[2]; mice, IM 0.636 mg
  absorption and conversion into epinephrine: absorbed rapidly upon IM injection and quickly converted into epinephrine
[2]; mice
  clinical observations after IM injection: appeared to be normal throughout the study and showed no signs of distress or illness
[3]; 15.3 mg/kg (freebase) p.o. daily, study period
  drug related deaths: no drug related deaths were observed
[3]; 15.3 mg/kg (freebase) p.o. daily, tumor-bearing mice
  effect on body weight: no effect on body weight
[3]; 5 days post B16F10 inoculation, 15.3 mg/kg p.o. QD from day -7, vehicle 16.4±2.5, p<0.01
  mean tumor volume: 6.2±1.1 mm^3

## CNC[C@H](O)c1ccc(O)c(O)c1 [Epinephrine]
[4]
  Tmax: 1.12 ± 0.717 h
[5]
  AUClast (plasma epinephrine): 147.37 ± 39.41 ng·min/mL
[6]; female, New Zealand White, rabbit, in vivo, im, 0.3 mg
  AUC(0-t): 0.0196 µg·h/mL
[6]; rabbits, IM 0.3 mg, mean±SEM
  Cmax (plasma epinephrine): 0.05023 ± 0.01495 µg/mL

## CNCC(O)c1ccc(OC(=O)C(C)(C)C)c(OC(=O)C(C)(C)C)c1 (stereo not drawn) [dipivefrin, 4-(1-hydroxy-2-(methylamino)ethyl)-1,2-phenylene bis(2,2-dimethylpropanoate)]
[1]
  body weight loss during infection vs placebo: losing less weight
[1]; single p.o. dose 8.48 mg/kg
  influenza virus titers in lung tissues vs placebo: did not differ significantly
[1]; single p.o. dose 8.48 mg/kg, lungs day 3 and day 6 p.i.
  visual lung hemorrhage score (scale 0 to 4): 0-3
[1]; single p.o. dose 8.48 mg/kg, p<0.05
  lung virus titers day 6 p.i. vs day 3 p.i.: lower virus titers in lung tissues on day 6 p.i. than on day 3 p.i
[7]; 15.3 mg/kg (freebase) oral gavage once daily from day -5 to day 7, 10 mice
  survival at 7 days post infection: No mouse died
[7]; 4 hours post infection, 4 animals per group, p<0.05
  blood bacterial counts: significantly higher for the vehicle treated group than the drug treated group
[8]
  absorption and biotransformation into epinephrine: absorbed and biotransformed into epinephrine rapidly
[3]; 14 days post B16F10 inoculation, 15.3 mg/kg p.o. QD, vehicle 1060, p<0.05
  median tumor volume: 827 mm^3
[3]; Group-1b vs vehicle group 1a, p=0.038
  ILS (increase in life-span): 12%
[3]; Group-1b, 15.3 mg/kg p.o. from day 8
  MST (median survival time): 19.0 days
[3]; Group-2, 15.3 mg/kg p.o. from day -7
  MST (median survival time): 18.0 days
[3]; Group-2 vs vehicle, p=0.175
  ILS (increase in life-span): 6%
[3]; day 19, group 1b, 15.3 mg/kg p.o. QD from day 8 (established tumor), vehicle 3668.0±311.9
  mean tumor volume: 2997.2±341.6 mm^3
[3]; day 19, group 1b, dosing from day 8
  reduction in mean tumor volume compared to vehicle: about 18%

## CNC[C@H](O)c1ccc(O)c(O)c1 [epinephrine bitartrate]
[2]; IM epinephrine bitartrate 0.546 mg (0.3 mg freebase), approximately 20 minutes post administration
  mice found dead: Two out of three
[2]; mice
  clinical observations after IM injection: cold and lethargic approximately 5 minutes after IM injection
